From patent US20020155519A1 (priority 1997, published 2002)
Entries after “also recorded” stand apart in the source; their conditions may differ. Where two headings read alike, the source gives them in different places.

Columns and labels:
[1] = tested on: human blood bacterium (HBB); type: cell-based
Protocol: Normally 1 ml of serum was added to 9 ml of medium. Larger flasks with a proportionately larger amount of serum and medium are used to produce bacteria in quantity. Modulators might be added to some flasks in 10× or higher concentration (corresponding to addition of 1 ml or less). When examining the effect of modulators, control flasks were prepared similarly without the addition of the modulator. Levels were observed microscopically (inverted phase microscope, observing the number of organisms per field crudely or by actual count) after incubation, typically at several points in time.
When multiple comparisons were done at once, they were done in 12 well or 24 well cell culture plates, most often the latter. With the latter, typically 1 ml of medium inoculated with serum is added to each well, with modulators added at 10× or higher concentration (0.1 ml or less). When comparisons are done in well plates, control wells without any additions are included. Levels were observed microscopically (inverted phase microscope) after incubation, typically at several points in time. The well plate cultures were also used for antibiotic sensitivity testing.
These procedures are those known in the art and include uses of antibodies and DNA probes, Western and Southern blots, PCR and the diagnostic kits therefor. First, organisms can be quantified by culture. […] If a means is found to immobilize the bacteria to grow isolated colonies, counts will be more accurate. Quantification is used to follow the progress of treatment and to correlate HBB levels with specific disease syndromes. Quantification is used also for antibiotic sensitivity measurements, comparing the level of growth with antibiotic treatment to the level of growth without treatment. Such antibiotic sensitivity measurements establish the basis for the clinical choice of antibiotic drugs.

yeast-like forms of HBB = experiment: Suppression of yeast-like forms of HBB by antifungal agents; type: cell-based, human blood bacterium (HBB)
[2] = tested on: human blood bacterium (HBB); experiment: Resistance of HBB to detergents and disinfectants; type: cell-based; conditions: for resistance of HBB to detergent (lysis): 0.1%
HBB = type: in vivo, human; conditions: uncontrolled patient trials
Protocol: Experiments have been conducted investigating the correlation of the presence of or increased presence of HBB with the clinical symptoms of three autoimmune diseases, and the results of instituting an antibiotic regimen in patients. […] All patients were cultured repeatedly to determine levels of HBB. The antibiotic treatment regimen was based on antibiotic sensitivities done on a pilot series of cultures and on the known properties of the organism, which clearly requires long-term, continuous treatment to address its very slow growth rate. This approach differs from usual treatment regimens for other bacterial infections. Neither the subjects nor the investigators were blind, and there was no untreated or placebo-treated control group.
Antibiotic treatment consisted of one or more of the following three antibiotic regimens: (1) penicillin V, 500 mg four times a day, plus probenecid, 500 mg four times a day, plus Augmentin 500 mg four times a day; (2) ciprofloxacin, 500 mg three times a day; or (3) isoniazid, 100 mg three times a day. Most patients received a combination of two of the regimens concurrently.
A regime or schedule is continued to optimize effectiveness, balanced against negative effects of treatment.

[3] = tested on: extracellular exudate and the bacteria (HBB); experiment: Lectin binding to HBB exudate (slime) and bacteria; parameters: species or system human blood bacterium (HBB)
Excerpt: The amount of the exudate produced is strongly influenced by or dependent upon the composition of the culture medium. The current medium formulae (L and O) have been designed to reduce slime production. In the original, crude medium, a centrifuged culture may consist of more than 10% of this gel by volume. In the L and O media, older cultures of HBB may develop a thin layer of gel that traps the cells and makes them adherent to the culture flask.

Clc1ccc(COC(Cn2ccnc2)c2ccc(Cl)cc2Cl)c(Cl)c1 (stereo not drawn) [miconazol]
observed antibiotic and antifungal sensitivities (outcome, number of isolates) [1]: no effect (1 isolate) | suppression of yeast-like forms (yeast-like forms of HBB): no suppression

C[C@@H]1[C@H](O)[C@@H](C)/C=C/C=C/CC/C=C/C=C/C=C/C=C/C(O[C@H]2O[C@H](C)[C@@H](O)[C@H](N)[C@@H]2O)CC2O[C@](O)(CC(O)C(O)CCC(O)CC(O)CC(O)CC(=O)O[C@H]1C)CC(O)C2C(=O)O (stereo partly drawn) [nystatin]
observed antibiotic and antifungal sensitivities (outcome, number of isolates) ([1]; saturated): no effect (1 isolate) | suppression of yeast-like forms (yeast-like forms of HBB): no suppression

Tween-20
resistance of HBB to detergent (lysis) [2]: resist

CCCCCCCCCCCCOS(=O)(=O)[O-].[Na+] [SDS]
resistance of HBB to detergent (lysis) [2]: does cause lysis

O=C([O-])c1ccccc1.[Na+] [sodium benzoate]
observed antibiotic and antifungal sensitivities (outcome, number of isolates) ([1]; 50 μg/ml): no effect (1 effect) | suppression of yeast-like forms (yeast-like forms of HBB): no suppression

NP-40
resistance of HBB to detergent (lysis) [2]: resist

CCCCCCCCCCC(=O)[O-].[Na+] [sodium undecylate]
observed antibiotic and antifungal sensitivities (outcome, number of isolates) ([1]; 50 μg/ml): no effect (1 isolate) | suppression of yeast-like forms (yeast-like forms of HBB): no suppression

penicillin
clinical response in patients (in words) (HBB): not effective for a sustained response in most patients; also recorded: short-term response in many

CCCCCCCCCCCCN(C)CC(=O)O [n-laurylsarcosine]
resistance of HBB to detergent (lysis) [2]: resist

CC[C@H]1OC(=O)[C@H](C)[C@@H](O[C@H]2C[C@@](C)(OC)[C@@H](O)[C@H](C)O2)[C@H](C)[C@@H](O[C@@H]2O[C@H](C)C[C@H](N(C)C)[C@H]2O)[C@](C)(OC)C[C@@H](C)C(=O)[C@H](C)[C@@H](O)[C@]1(C)O [clarithromycin]
antibiotic sensitivity of HBB strains/isolates in culture ([1]; concentration not printed): some strains show sensitivity; also recorded: often stimulate growth | antibiotic sensitivity of HBB strains/isolates in culture ([1]; concentration not printed, listed as Clarithromycin): appears more effective in culture

Nc1ccc(O)c(C(=O)O)c1 [5-aminosalicylic acid]
observed antibiotic and antifungal sensitivities (outcome, number of isolates) ([1]; 20 μg/ml): no effect (4 isolates)

Nc1ccc(S(=O)(=O)c2ccc(N)cc2)cc1 [dapsone]
observed antibiotic and antifungal sensitivities (outcome, number of isolates) [1]: no effect (1 isolate)

CC1(C)S[C@@H]2[C@H](NC(=O)COc3ccccc3)C(=O)N2[C@H]1C(=O)O [penicillin V]
observed antibiotic and antifungal sensitivities (outcome, number of isolates) ([1]; 1-2 μg/ml): no effect (27 isolates); also recorded: sensitive (17 isolates); also recorded: growth stimulated (4 isolates) | antibiotic sensitivity of HBB strains/isolates in culture ([1]; concentration not printed): relatively sensitive

NNC(=O)c1ccncc1 [isoniazid]
observed antibiotic and antifungal sensitivities (outcome, number of isolates) ([1]; 2 μg/ml): no effect (24 isolates); also recorded: sensitive (5 isolates); also recorded: growth stimulated (6 isolates) | antibiotic sensitivity of HBB strains/isolates in culture ([1]; concentration not printed): some isolates are sensitive

gentamycin
observed antibiotic and antifungal sensitivities (outcome, number of isolates) ([1]; 2 μg/ml): no effect (1 isolate)

CC[C@H]1OC(=O)[C@H](C)[C@@H](O[C@H]2C[C@@](C)(OC)[C@@H](O)[C@H](C)O2)[C@H](C)[C@@H](O[C@@H]2O[C@H](C)C[C@H](N(C)C)[C@H]2O)[C@](C)(O)C[C@@H](C)C(=O)[C@H](C)[C@@H](O)[C@]1(C)O [erythromycin]
antibiotic sensitivity of HBB strains/isolates in culture [1]: resistant

CC[C@H]1OC(=O)[C@H](C)[C@@H](O[C@H]2C[C@@](C)(OC)[C@@H](O)[C@H](C)O2)[C@H](C)[C@@H](O[C@@H]2O[C@H](C)C[C@H](N(C)C)[C@H]2O)[C@](C)(O)C[C@@H](C)CN(C)[C@H](C)[C@@H](O)[C@]1(C)O [azothromycin]
antibiotic sensitivity of HBB strains/isolates in culture [1]: some strains show sensitivity; also recorded: often stimulate growth | observed antibiotic and antifungal sensitivities (outcome, number of isolates) [1]: no effect (6 isolates); also recorded: sensitive (7 isolates)

Nc1ccc(S(=O)(=O)Nc2ccccn2)cc1 [sulfapyridine]
observed antibiotic and antifungal sensitivities (outcome, number of isolates) [1]: no effect (6 isolates); also recorded: no effect (1 isolate)

O=C(O)c1cc(/N=N/c2ccc(S(=O)(=O)Nc3ccccn3)cc2)ccc1O [sulfasalazine]
observed antibiotic and antifungal sensitivities (outcome, number of isolates) [1]: no effect (6 isolates); also recorded: no effect (isolate)

CCN(CCO)CCCC(C)Nc1ccnc2cc(Cl)ccc12 (stereo not drawn) [hydroxychloroquin]
antibiotic sensitivity of HBB strains/isolates in culture ([1]; concentration not printed): synergistic effect with a few isolates

O=C(O)c1cn(C2CC2)c2cc(N3CCNCC3)c(F)cc2c1=O [ciprofloxacin]
antibiotic sensitivity of HBB strains/isolates in culture [1]: Some strains are sensitive | observed antibiotic and antifungal sensitivities (outcome, number of isolates) [1]: no effect (5 isolates); also recorded: partially sensitive (1 isolate)

COc1cc(NC(C)CCCN)c2ncccc2c1 (stereo not drawn) [primaquine]
observed antibiotic and antifungal sensitivities (outcome, number of isolates) [1]: no effect (31 isolates); also recorded: sensitive (15 isolates); also recorded: growth stimulated (1 isolate)

benzalkonium chloride
resistance of HBB to disinfectant ([2]; 1:1000): resistant

Triton X
resistance of HBB to detergent (lysis) [2]: resist

CCN(CC)CCCC(C)Nc1c2ccc(Cl)cc2nc2ccc(OC)cc12 (stereo not drawn) [quinacrine]
observed antibiotic and antifungal sensitivities (outcome, number of isolates) [1]: no effect (1 isolate)

CC1(C)S[C@@H]2[C@H](NC(=O)[C@H](N)c3ccc(O)cc3)C(=O)N2[C@H]1C(=O)O [amoxicillin]
antibiotic sensitivity of HBB strains/isolates in culture [1]: less sensitivity

Oc1c(Cl)cc(Cl)c(Cl)c1Cc1c(O)c(Cl)cc(Cl)c1Cl [hexachlorophene]
resistance of HBB to disinfectant [2]: resistant

CCC(=O)[O-].[Na+] [sodium propionate]
observed antibiotic and antifungal sensitivities (outcome, number of isolates) ([1]; 50-250 μg/ml): no effect (2 isolates) | suppression of yeast-like forms (yeast-like forms of HBB): no suppression

wheat germ agglutinin
binding of lectin to exudate and bacteria [3]: bind

Clc1ccccc1C(c1ccccc1)(c1ccccc1)n1ccnc1 [clotrimazol]
observed antibiotic and antifungal sensitivities (outcome, number of isolates) [1]: no effect (1 isolate) | suppression of yeast-like forms (yeast-like forms of HBB): no suppression

NCC[C@H](O)C(=O)N[C@@H]1C[C@H](N)[C@@H](O[C@H]2O[C@H](CN)[C@@H](O)[C@H](O)[C@H]2O)[C@H](O)[C@H]1O[C@H]1O[C@H](CO)[C@@H](O)[C@H](N)[C@H]1O [amikacin]
observed antibiotic and antifungal sensitivities (outcome, number of isolates) ([1]; 2 μg/ml): no effect (1 isolate)

CCN(CC)CCCC(C)Nc1ccnc2cc(Cl)ccc12 (stereo not drawn) [chloroquin]
antibiotic sensitivity of HBB strains/isolates in culture ([1]; concentration not printed): synergistic effect with a few isolates

Cc1onc(-c2ccccc2Cl)c1C(=O)N[C@@H]1C(=O)N2[C@@H]1SC(C)(C)[C@@H]2C(=O)O [cloxacillin]
observed antibiotic and antifungal sensitivities (outcome, number of isolates) ([1]; 2 μg/ml): no effect (16 isolates); also recorded: sensitive (5 isolates); also recorded: growth stimulated (6 isolates) | antibiotic sensitivity of HBB strains/isolates in culture ([1]; concentration not printed): occasional isolates show higher sensitivity

amphoptericin
observed antibiotic and antifungal sensitivities (outcome, number of isolates) ([1]; 0.25 μg/ml): no effect (1 isolate) | suppression of yeast-like forms (yeast-like forms of HBB): no suppression

Cc1onc(-c2c(Cl)cccc2Cl)c1C(=O)N[C@@H]1C(=O)N2[C@@H]1SC(C)(C)[C@@H]2C(=O)O [dicloxacillin]
clinical response in patients (in words) (HBB): A few patients have done better

COc1cc(Cc2cnc(N)nc2N)cc(OC)c1OC [trimethoprim]
antibiotic sensitivity of HBB strains/isolates in culture [1]: resistance | observed antibiotic and antifungal sensitivities (outcome, number of isolates) [1]: no effect (1 isolate)

B1: peanut agglutinin: lectin binding other sugars (protein, UniProt P02872 24-273, looked up)
Galactose-binding lectin: AETVSFNFNSFSEGNPAINFQGDVTVLSNGNIQLTNLNKVNSVGRVLYAMPVRIWSSATGNVASFLTSFSFEMKDIKDYDPADGIIFFIAPEDTQIPAGSIGGGTLGVSDTKGAGHFVGVEFDTYSNSEYNDPPTDHVGIDVNSVDSVKTVPWNSVSGAVVKVTVIYDSSTKTLSVAVTNDNGDITTIAQVVDLKAKLPERVKFGFSASGSLGGRQIHLIRSWSFTSTLITTTRRSIDNNEKKIMNMASA
binding of lectin to exudate and bacteria [3]: do not appear to bind
